Experimental data published in patent US20240246905A1 (University of Leicester, priority 2021, published 2024).
Converted amounts (≈) assume the structure as drawn. Read-outs that look alike come from different tables or passages of the source.

How the values were obtained:
[1] = system: MRSA 252; test: MIC, broth micro-dilution; assay type: cell-based, Staphylococcus aureus; settings: Staphylococcus aureus, read-out: MIC
Description: (§1) E. coli DH5α, P. aeruginosa PA01 and the 53 S. aureus strains were recovered from frozen (−80° C.) glycerol (15% v/v) stocks on Lysogeny agar (LA)—Gram negative and trypticase soy agar (TSA)—plates at 37° C. for 24 hours. Single colonies were placed in either 3 mL Lysogeny broth (LB)—Gram negative or trypticase soy broth (TSB)—Gram positive and incubated at 37° C., 250 rpm for 18 hours.
(§2) Antibiotic MIC's were determined by a broth micro-dilution method according to Clinical Standard Laboratory Institute (CSLI) Guidelines (2017). Briefly, 96-well microplates, each containing 195 μL of the 1:2 dilution antibiotic in TSB, were inoculated with 5 μL of overnight cultured bacteria, diluted to give a starting bacterial concentration of 5×10^5 CFU/mL. The optical density of each well inoculated was recorded every 12 minutes over an 18 hour period at 37° C. The data from this was plotted in OriginPro8 (OriginLab) and sigmoidal curves fitted using the dose response function. Fitted values for each curve were used to calculate the MIC.

[2] = system: MSSA 476; test: MIC, broth micro-dilution; assay type: cell-based, Staphylococcus aureus
Description: as §1, §2

[3] = system: MRSA 252; test: Disc diffusion (Kirby-Bauer), zone of inhibition; assay type: cell-based, Staphylococcus aureus; settings: Staphylococcus aureus, 500 μg/mL, '/' = no zone, read-out: Zone of inhibition
Description: as §1
(§3) The antibiotic activity was determined using a Kirby-Bauer method according to Clinical Standard Laboratory Institute (CSLI) Guidelines (2017). Briefly, 180 μL of a 1 in 200 dilution (in LB or TSB) of overnight cultures of selected Gram negative and Gram positive bacteria were applied to an agar plate containing the solid growth medium, Mueller-Hinton agar (MHA). Sterile discs, inoculated with 50 μL of antibiotic, were first added to the agar plate before the plates were incubated for 24 hours at 37° C. Following incubation, the zone of inhibition (if it existed) was recorded.

[4] = system: MSSA 476; test: Disc diffusion (Kirby-Bauer), zone of inhibition; assay type: cell-based, Staphylococcus aureus; settings: 500 μg/mL, '/' = no zone; for zone of inhibition at 500 µg/mL: Staphylococcus aureus, read-out: Zone of inhibition
Description: as §1, §3

[5] = system: Escherichia coli DH5α; test: Disc diffusion (Kirby-Bauer), zone of inhibition; assay type: cell-based; settings: Escherichia coli DH5α; 500 μg/mL; '/' = no zone; read-out: Zone of inhibition
Description: as §1, §3

[6] = system: Pseudomonas aeruginosa PA01; test: Disc diffusion (Kirby-Bauer), zone of inhibition; assay type: cell-based; settings: 500 μg/mL, '/' = no zone
Description: as §1, §3

[7] = system: Staphylococcus aureus 15981; test: Disc diffusion (Kirby-Bauer), zone of inhibition; assay type: cell-based; settings: Staphylococcus aureus 15981, 500 μg/mL, '/' = no zone; for zone of inhibition at 500 µg/mL: read-out: Zone of inhibition
Description: as §1, §3

[8] = system: C. albicans ATCC 90028; test: Anti-fungal MIC (CO-ADD); assay type: cell-based; settings: Candida albicans, ATCC90028, read-out: MIC
Description: (§4) Fungal strains were cultured for 3 days on Yeast Extract-Peptone Dextrose (YPD) agar at 30° C. A yeast suspension of 1×10^6 to 5×10^6 CFU/mL (as determined by OD530) was prepared from five colonies. […] All plates were covered and incubated at 35° C. for 36 hours without shaking. […] The absorbance was measured using a Biotek Multiflo Synergy HTX plate reader. In both cases, the percentage of growth inhibition was calculated for each well, using the negative control (media only) and positive control (fungi without inhibitors) on the same plate. […] Due to a higher variance in growth and inhibition, a lower threshold was applied to the data for C. neoformans. In addition, the maximal percentage of growth inhibition is reported as DMax, indicating any compounds with marginal activity.

[9] = system: C. deuterogattii ATCC 32609; test: Anti-fungal MIC (CO-ADD); assay type: cell-based; settings: read-out: MIC
Description: as §4

[10] = system: C. glabrata ATCC 90030; test: Anti-fungal MIC (CO-ADD); assay type: cell-based; settings: Nakaseomyces glabratus, ATCC90030, read-out: MIC
Description: as §4

[11] = system: C. neoformans H99; ATCC 208821; test: Anti-fungal MIC (CO-ADD); assay type: cell-based; settings: Cryptococcus neoformans, ATCC208821, read-out: MIC
Description: as §4

[12] = system: C. tropicalis ATCC 450; test: Anti-fungal MIC (CO-ADD); assay type: cell-based; settings: Candida tropicalis, ATCC450, read-out: MIC
Description: as §4

[13] = system: C. tropicalis ATCC 750; test: Anti-fungal MIC (CO-ADD); assay type: cell-based; settings: Candida tropicalis, ATCC750, read-out: MIC
Description: as §4

[14] = system: MRSA 252, MSSA 476, S. aureus 15981, P. aeruginosa PA01 and E. coli DH5α; test: Disc diffusion primary screening, five strains (statements in words); assay type: cell-based; settings: 500 μg/mL
Description: As such, the minimum inhibition concentration (MICs) of biologically active compounds were further assessed using the broth dilution method against the S. aureus strains; MRSA 252 and MSSA 476 (Table 1). The results of both assays enabled key structural elements and functional groups required for the compounds to retain their antibiotic activity to be identified.
as §3

[15] = Staphylococcus aureus, MSSA, read-out: MIC

Structure (SMILES) | MIC [1] | MIC [2, 15] | zone of inhibition at 500 µg/mL [3] | zone of inhibition at 500 µg/mL [4] | zone of inhibition at 500 µg/mL [6] | zone of inhibition at 500 µg/mL [7] | further results
[C-]#[N+]C=Cc1ccc(NC(=O)OC(C)(C)C)cc1 [Compound 23, Tert-butyl(4-(isocyanovinyl)phenyl)carbamate] | 35 µg/mL (≈ 143 µM) | 164 µg/mL (≈ 671 µM) | 18 mm | 20 mm | 14 mm | 14 mm | zone of inhibition at 500 µg/mL [5]: 14 mm
[C-]#[N+]/C=C/c1ccc(NC(C)=O)cc1-c1ccccc1 [Compound 43, (E)-N-(6-(2-Isocyanovinyl)-(1,1-biphenyl)-3-yl)acetamide] | 32 µg/mL (≈ 122 µM) | 26 µg/mL (≈ 99.1 µM) | 22 mm | 18 mm |  | 18 mm | 
[C-]#[N+]C=Cc1cc(OC)ccc1OC (mixture of isomers) [Compound 18, (E/Z)-2-(Isocyanovinyl)-1,4-dimethoxybenzene] | 117 µg/mL | 210 µg/mL | 14 mm | 26 mm |  | 20 mm | 
[C-]#[N+]C=Cc1ccc(O)cc1Br [Compound 15, 3-Bromo-4-(2-isocyanovinyl)phenol] | 185 µg/mL (≈ 826 µM) | 200 µg/mL (≈ 893 µM) | 20 mm | 22 mm |  | 24 mm | MIC [8]: 8 µg/mL; MIC [9]: 4 µg/mL; MIC [10]: 32 µg/mL; MIC [11]: 8 µg/mL; MIC [12]: 4 µg/mL; MIC [13]: 16 µg/mL
[C-]#[N+]C=Cc1cccc(O)c1 [Compound 10, 3-(2-Isocyanovinyl)phenol] | 137 µg/mL (≈ 944 µM) | 300 µg/mL (≈ 2070 µM) | 20 mm | 16 mm |  | 18 mm | 
[C-]#[N+]/C=C/c1cc(OC)ccc1O [Compound 12, (E)-2-(2-Isocyanovinyl)-4-methoxyphenol] | 123 µg/mL (≈ 702 µM) | 187 µg/mL (≈ 1070 µM) | 16 mm | 14 mm |  | 16 mm | 
[C-]#[N+]C=Cc1c[nH]c2cccc(Br)c12 [Compound 31, 4-Bromo-3-(2-isocyanovinyl)-1H-indole] |  |  |  |  |  |  | MIC [2]: 361 µg/mL (≈ 1460 µM); Zone of inhibition [4]: 12 mm; Zone of inhibition [7]: 12 mm
[C-]#[N+]C=C(C)c1ccc(NS(C)(=O)=O)cc1 [Compound 24, N-(4-(1-Isocyanoprop-1-en-2-yl)phenyl)methanesulfonamie] | 152 µg/mL (≈ 643 µM) | 291 µg/mL (≈ 1230 µM) | 16 mm | 22 mm |  | 18 mm | zone of inhibition at 500 µg/mL [5]: 14 mm
[C-]#[N+]C=Cc1cc(Br)c(O)c(Br)c1 [Compound 17, 2,6-Dibromo-4-(2-isocyanovinyl)phenol] | 157 µg/mL (≈ 518 µM) | 176 µg/mL (≈ 581 µM) | 18 mm | 18 mm |  | 16 mm | 
[C-]#[N+]c1ccc(O)cc1 [Compound 5, 4-Isocyanophenol] | 26 µg/mL (≈ 218 µM) | 23 µg/mL (≈ 193 µM) | 26 mm | 30 mm | 26 mm | 16 mm | zone of inhibition at 500 µg/mL [5]: 18 mm
[C-]#[N+]/C=C/c1ccccc1O (single isomer, unassigned) [Compound 11, 2-(2-isocyanovinyl)phenol] | 250 µg/mL (≈ 1720 µM) | 350 µg/mL (≈ 2410 µM) | 18 mm | 20 mm | 12 mm | 14 mm | 
[C-]#[N+]CCc1ccc(O)cc1 [Compound 4, 4-(2-Isocyanoethyl)phenol] |  |  |  |  |  |  | antibiotic activity in disc diffusion assays (in words) [14]: complete loss of activity against all five strains
[C-]#[N+]C=Cc1ccc(O)c(O)c1 [Compound 16, 4-(2-Isocyanovinyl)benzene-1,2-diol] | 116 µg/mL (≈ 720 µM) | 400 µg/mL (≈ 2480 µM) | 22 mm | 22 mm | 18 mm | 24 mm | 
[C-]#[N+]C=Cc1c[nH]c2cccc(Br)c12 [Compound 30, 4-Bromo-3-(2-isocyanovinyl)-1H-indole] | 214 µg/mL (≈ 866 µM) | 350 µg/mL (≈ 1420 µM) | 14 mm | 12 mm |  | 12 mm | 
[C-]#[N+]C=Cc1cn(CC)c2ccccc12 [Compound 28] | 56 µg/mL (≈ 285 µM) | 144 µg/mL (≈ 734 µM) | 26 mm | 22 mm | 20 mm | 22 mm | 
[C-]#[N+]/C=C/c1cc(/C=C/c2ccccc2)ccc1O [Compound 37] | 105 µg/mL (≈ 425 µM) | 120 µg/mL (≈ 485 µM) | 22 mm | 24 mm |  | 22 mm | antibiotic activity in disc diffusion assays (in words) [14]: retained antibiotic activity
[C-]#[N+]/C=C/c1ccc(NC(C)=O)cc1/C=C/c1ccncc1 [Compound 44, N-(4-((E)-2-Isocyanovinyl)-3-((E)-2-(pyridin-4-yl)vinyl)phenyl)acetamide] | 35 µg/mL (≈ 121 µM) | 46 µg/mL (≈ 159 µM) | 28 mm | 28 mm | 26 mm | 30 mm | antibiotic activity in disc diffusion assays (in words) [14]: antibiotic activity against four of the strains
[C-]#[N+]/C=C/c1cn(C(C)C)c2ccccc12 [Compound 29] | 63 µg/mL (≈ 300 µM) | 90 µg/mL (≈ 428 µM) | 22 mm | 16 mm | 12 mm | 16 mm | 
